SMILES strings stand for the structures.

Assay [1] has as its target T1, MKNK1 (Homo sapiens, UniProt Q9BUB5, T385D).
T1 construct: GST (N); purchased Carna Biosciences 02-145; host or cells: insect cells (baculovirus expression system)
Description: MKNK1 kinase high ATP assay (TR-FRET-based). The class given is biochemical. To be noted: 2 mM ATP, 15 min preincubation. The method in brief: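 TR-FRET read-out (anti-phospho-S6 Ser236 antibody, Eu/XL665) of biotin-peptide phosphorylation (0.06 μM) at high ATP (2 mM final). Enzyme was GST-MKNK1 full length, T344D, pre-bound to compound for 15 min before a 30 min reaction at 22 °C, pH 7.5. Inhibition scaled between no-inhibitor (0%) and no-enzyme (100%) wells.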
A general note: In TR-FRET formats the signal depends on donor and acceptor labels being close together.

In assay [2] the target is T1, MKNK1. The experiment in a line: MKNK1 kinase assay (MKNK1 TR-FRET assay). As to conditions: 10 μM ATP, 15 min preincubation. The assay is classed as biochemical.

T1 sequence (Q9BUB5 1-424 isoform Q9BUB5-2 T344D): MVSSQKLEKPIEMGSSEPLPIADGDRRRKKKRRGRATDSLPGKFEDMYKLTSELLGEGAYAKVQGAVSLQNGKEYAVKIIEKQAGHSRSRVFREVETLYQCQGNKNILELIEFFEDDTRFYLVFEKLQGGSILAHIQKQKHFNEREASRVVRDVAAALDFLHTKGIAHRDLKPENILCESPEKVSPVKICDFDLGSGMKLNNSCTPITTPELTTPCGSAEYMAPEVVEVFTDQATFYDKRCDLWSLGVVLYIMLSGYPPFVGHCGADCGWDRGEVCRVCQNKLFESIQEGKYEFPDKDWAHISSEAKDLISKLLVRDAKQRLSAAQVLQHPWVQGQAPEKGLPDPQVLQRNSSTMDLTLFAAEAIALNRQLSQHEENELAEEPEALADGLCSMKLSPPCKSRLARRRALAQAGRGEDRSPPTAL

On to `C[C@@H]1CN(c2cccc3oc(-c4cnc5ccc(OC[C@@H]6CCC(=O)N6)nn45)cc23)CCO1` [II-72, (5S)-5-{[(3-{4-[(2R)-2-methylmorpholin-4-yl]-1-benzofuran-2-yl}imidazo[1,2-b]pyridazin-6-yl)oxy]methyl}pyrrolidin-2-one], for which the values for the IC50 in assay [1] (Table 2b) and in assay [2] (Table 1b) were 33 nM and 15.7 nM, respectively.

Take `C[C@@H]1CN(c2cccc3oc(-c4cnc5ccc(O[C@H]6C[C@H](N)C6)nn45)cc23)CCO1` [II-73, trans-3-[(3-{4-[(2R)-2-methylmorpholin-4-yl]-1-benzofuran-2-yl}imidazo[1,2-b]pyridazin-6-yl)oxy]cyclobutanamine]: the IC50 is 47.6 nM in assay [1] (Table 2b) and 42.4 nM in assay [2] (Table 1b).

As for `CC1(C)CN(c2cccc3oc(-c4cnc5ccc(OC[C@H]6CCC(=O)N6)nn45)cc23)CCO1` [II-74, (5R)-5-[({3-[4-(2,2-dimethylmorpholin-4-yl)-1-benzofuran-2-yl]imidazo[1,2-b]pyridazin-6-yl}oxy)methyl]pyrrolidin-2-one], the IC50 in assay [1] (Table 2b) is 11.2 nM; in assay [2] (Table 1b), 4.1 nM.

`C[C@@H](N)COc1ccc2ncc(-c3cc4c(N5CCOC[C@@H]5C)cccc4o3)n2n1` [II-75, (2R)-1-[(3-{4-[(3S)-3-methylmorpholin-4-yl]-1-benzofuran-2-yl}imidazo[1,2-b]pyridazin-6-yl)oxy]propan-2-amine]: the IC50 came out at 25.7 nM in assay [1] (Table 2b) and 23 nM in assay [2] (Table 1b).

As for `C[C@@H](N)COc1ccc2ncc(-c3cc4c(N5CCO[C@@H](C)C5)cccc4o3)n2n1` [II-76, (2R)-1-[(3-{4-[(2S)-2-methylmorpholin-4-yl]-1-benzofuran-2-yl}imidazo[1,2-b]pyridazin-6-yl)oxy]propan-2-amine], the IC50 was 18.4 nM in assay [1] (Table 2b) and 6.9 nM in assay [2] (Table 1b).

`C[C@@H](N)COc1ccc2ncc(-c3cc4c(N5CCOCC5)nccc4o3)n2n1` [III-1, (2R)-1-({3-[4-(Morpholin-4-yl)furo[3,2-c]pyridin-2-yl]imidazo[1,2-b]pyridazin-6-yl}oxy)propan-2-amine]: the IC50 in assay [1] (Table 2c) came out at 19.5 nM; in assay [2] (Table 1c) it was 8.4 nM.

Regarding `C[C@@H](N)COc1ccc2ncc(-c3cc4c(N5CCC(CO)CC5)nccc4o3)n2n1` [III-2, {1-[2-(6-{[(2R)-2-Aminopropyl]oxy}imidazo[1,2-b]pyridazin-3-yl)furo[3,2-c]pyridin-4-yl]piperidin-4-yl}methanol], the IC50 in assay [1] (Table 2c) and in assay [2] (Table 1c) was 1.8 nM each time.

Turning to `C[C@@H]1COCCN1c1nccc2oc(-c3cnc4ccc(OC[C@@H](C)N)nn34)cc12` [III-3, (2R)-1-[(3-{4-[(3R)-3-Methylmorpholin-4-yl]furo[3,2-c]pyridin-2-yl}imidazo-[1,2-b]pyridazin-6-yl)oxy]propan-2-amine], the results for the IC50 in assay [1] (Table 2c) and in assay [2] (Table 1c) were 11.7 nM and 6.7 nM, respectively.

`CCN(CCOC)c1nccc2oc(-c3cnc4ccc(OC[C@@H](C)N)nn34)cc12` [III-4, 2-(6-{[(2R)-2-Aminopropyl]oxy}imidazo[1,2-b]pyridazin-3-yl)-N-ethyl-N-(2-methoxyethyl)furo[3,2-c]pyridin-4-amine]: the IC50 in assay [1] (Table 2c) came to 0.4 nM; in assay [2] (Table 1c), 0.6 nM.

As for `C[C@H](N)COc1ccc2ncc(-c3cc4c(N5CCOCC5)nccc4o3)n2n1` [III-7, (2S)-1-({3-[4-(Morpholin-4-yl)furo[3,2-c]pyridin-2-yl]imidazo[1,2-b]pyridazin-6-yl}oxy)propan-2-amine], the results for the IC50 in assay [1] (Table 2c) and in assay [2] (Table 1c) were 21.7 nM and 11.6 nM, respectively.

For the compound `C[C@H](N)COc1ccc2ncc(-c3cc4c(N5CCN(C)CC5)nccc4o3)n2n1` [III-8, (2S)-1-({3-[4-(4-Methylpiperazin-1-yl)furo[3,2-c]pyridin-2-yl]imidazo[1,2-b]pyridazin-6-yl}oxy)propan-2-amine], the IC50 in assay [1] (Table 2c) was 16.3 nM; in assay [2] (Table 1c), 7.2 nM.

Turning to `C[C@H](N)COc1ccc2ncc(-c3cc4c(N5CCCCC5)nccc4o3)n2n1` [III-9, (2S)-1-({3-[4-(Piperidin-1-yl)furo[3,2-c]pyridin-2-yl]imidazo[1,2-b]pyridazin-6-yl}oxy)propan-2-amine], the IC50 stood at 20.4 nM in assay [1] (Table 2c) and 10.6 nM in assay [2] (Table 1c).

With `C[C@H](N)COc1ccc2ncc(-c3cc4c(N5CCCC5)nccc4o3)n2n1` [III-10, (2S)-1-({3-[4-(Pyrrolidin-1-yl)furo[3,2-c]pyridin-2-yl]imidazo[1,2-b]pyridazin-6-yl}oxy)propan-2-amine], the IC50 in assay [1] (Table 2c) was 63.5 nM; in assay [2] (Table 1c) it was 15.4 nM.

`C[C@H](N)COc1ccc2ncc(-c3cc4c(N5CC[C@@H](N(C)C)C5)nccc4o3)n2n1` [III-11, (3R)-1-[2-(6-{[(2S)-2-Aminopropyl]oxy}imidazo[1,2-b]pyridazin-3-yl)furo[3,2-c]pyridin-4-yl]-N,N-dimethylpyrrolidin-3-amine]: the IC50 in assay [1] (Table 2c) came out at 12.4 nM; in assay [2] (Table 1c), 2.7 nM.

Take `C[C@H](N)COc1ccc2ncc(-c3cc4c(N(C)CCCN5CCCC5)nccc4o3)n2n1` [III-12, 2-(6-{[(2S)-2-Aminopropyl]oxy}imidazo[1,2-b]pyridazin-3-yl)-N-methyl-N-[3-(pyrrolidin-1-yl)propyl]furo[3,2-c]pyridin-4-amine]: the values for the IC50 in assay [1] (Table 2c) and in assay [2] (Table 1c) were 43.1 nM and 8.6 nM, respectively.

Turning to `C[C@H](N)COc1ccc2ncc(-c3cc4c(N(C)C5CCN(C)CC5)nccc4o3)n2n1` [III-13, 2-(6-{[(2S)-2-Aminopropyl]oxy}imidazo[1,2-b]pyridazin-3-yl)-N-methyl-N-(1-methylpiperidin-4-yl)furo[3,2-c]pyridin-4-amine], the IC50 in assay [1] (Table 2c) came to 62 nM; in assay [2] (Table 1c), 13 nM.

As for `C[C@H](N)COc1ccc2ncc(-c3cc4c(N5CCC[C@@H]5CO)nccc4o3)n2n1` [III-14, {(2R)-1-[2-(6-{[(2S)-2-Aminopropyl]oxy}imidazo[1,2-b]pyridazin-3-yl)furo-[3,2-c]pyridin-4-yl]pyrrolidin-2-yl}methanol], the IC50 in assay [1] (Table 2c) stood at 17.9 nM; in assay [2] (Table 1c), 6.9 nM.

Take `C[C@H](N)COc1ccc2ncc(-c3cc4c(N5CCN(C(=O)OC(C)(C)C)CC5)nccc4o3)n2n1` [III-15, tert-Butyl 4-[2-(6-{[(2S)-2-aminopropyl]oxy}imidazo[1,2-b]pyridazin-3-yl)furo[3,2-c]pyridin-4-yl]piperazine-1-carboxylate]: the figures for the IC50 in assay [1] (Table 2c) and in assay [2] (Table 1c) were 78.4 nM and 31 nM, respectively.

Consider `COCCN(C)c1nccc2oc(-c3cnc4ccc(OC[C@H](C)N)nn34)cc12` [III-16, 2-(6-{[(2S)-2-Aminopropyl]oxy}imidazo[1,2-b]pyridazin-3-yl)-N-(2-methoxyethyl)-N-methylfuro[3,2-c]pyridin-4-amine], for which the IC50 in assay [1] (Table 2c) came out at 6 nM; in assay [2] (Table 1c), 2.1 nM.

In the case of `C[C@H](N)COc1ccc2ncc(-c3cc4c(N5CCNCC5)nccc4o3)n2n1` [III-17, (2S)-1-({3-[4-(Piperazin-1-yl)furo[3,2-c]pyridin-2-yl]imidazo[1,2-b]pyridazin-6-yl}oxy)propan-2-amine], the IC50 in assay [1] (Table 2c) is 44.2 nM; in assay [2] (Table 1c), 18.3 nM.

Take `CCN(CCOC)c1nccc2oc(-c3cnc4ccc(OC[C@H](C)N)nn34)cc12` [III-18, 2-(6-{[(2S)-2-Aminopropyl]oxy}imidazo[1,2-b]pyridazin-3-yl)-N-ethyl-N-(2-methoxyethyl)furo[3,2-c]pyridin-4-amine]: the IC50 in assay [1] (Table 2c) is 0.9 nM; in assay [2] (Table 1c), 0.7 nM.

As usually defined, the IC50 is the point on the concentration scale where inhibition reaches its midpoint.

These data come from patent US20160287589A1, “SUBSTITUTED-IMIDAZOPYRIDAZINES” (BAYER PHARMA AKTIENGESELLSCHAFT, priority 2013, published 2016).
